Results as given in patent publication US11053236B2, “Substituted isoselenazolone anti-infective, anti-inflammatory, anti-cancer, cytoprotective, neuroprotective, and anti-oxidant agents” (priority 2016, dated 2021).
In brackets after ≈: the same amount, converted by molar mass.

Tests used:
[1] = tested on: Mtb H37Rv; assay: microbe, parasite or virus in culture; type: cell-based; settings: Mycobacterium tuberculosis, MABA
[2] = molecular target: Mtb Ag85C (Mycobacterium tuberculosis, UniProt P9WQN9); assay: Fluorometric resorufin butyrate/trehalose assay of Mtb Ag85C activity; type: biochemical; settings: for remaining activity at 5 µM: 5 μM compound, 40 min of incubation, normalized to control without inhibitor, read-out: Percent of Mtb Ag85C activity remaining
[3] = tested on: Mycobacterium tuberculosis H37Rv; assay: Minimum inhibitory concentration for Mycobacterium tuberculosis H37Rv strain (Table A); type: cell-based; settings: for MIC / MIC50: Mycobacterium tuberculosis, Strain Mtb H37Rv
[4] = molecular target: Ag85C (Mycobacterium tuberculosis, UniProt P9WQN9); assay: Activity of Ag85C modified by compounds over time (FIGS. 6A-6B); type: biochemical
Excerpt: FIGS. 6A-6B: Activity of Ag85C modified by compounds 506e (FIG. 6A) and 506f (FIG. 6B) over time.
FIGS. 6A-6B show the activity of Ag85C modified by compounds 506e and 506f over time.

[5] = tested on: MRHF cells treated with TcdB and TcdA; assay: Cytotoxicity assay: inhibition of toxin-induced cell rounding; type: cell-based, human; settings: 0.05 mL of 40 μM compound mixed with 0.05 mL TcdB and TcdA solution, 30 min; MRHF cells 2 h
Procedure: Cytotoxicity data was collected using a qualitative assay designed by Quidel to detect TcdB and TcdA presence in patients' stool samples. A solution containing TcdB and TcdA (0.05 mL) was mixed with 0.05 mL of a 40 μM solution of compounds of example 1-15 individually. These solutions were then incubated together for thirty minutes at room temperature. Then the 0.1 ml solutions were used to treat MRHF cells in a twenty four well plate. The cells were then incubated at thirty degrees Celsius under CO2 for two hours. Then, the cells were imaged using a 20× objective on an inverted microscope. […] Thus, compound 506o provides cytoprotection against Clostridium difficile toxins TcdB and TcdA.

Chain of Mtb Ag85C (P9WQN9 46-340 limits assumed): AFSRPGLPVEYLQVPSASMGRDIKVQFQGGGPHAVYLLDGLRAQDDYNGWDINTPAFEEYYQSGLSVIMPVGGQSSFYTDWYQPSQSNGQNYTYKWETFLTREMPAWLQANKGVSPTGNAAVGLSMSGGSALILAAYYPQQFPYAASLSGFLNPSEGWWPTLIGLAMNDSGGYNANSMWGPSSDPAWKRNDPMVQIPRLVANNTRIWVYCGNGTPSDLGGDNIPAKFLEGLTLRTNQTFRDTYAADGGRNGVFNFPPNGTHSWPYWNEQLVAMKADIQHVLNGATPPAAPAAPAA
Chain of Ag85C (P9WQN9 46-340): as the sequence (P9WQN9 46-340 limits assumed) above

Structure (SMILES): [N-]=[N+]=Nc1ccc(-n2[se]c3ccccc3c2=O)cc1
- melting point: 169 to 170 °C

Structure (SMILES): O=c1c2ccccc2[se]n1C12CC3CC(CC(C3)C1)C2
- melting point: 215 to 217 °C

Structure (SMILES): CC(C)(C)n1[se]c2ccccc2c1=O
- melting point: 137 to 139 °C

Structure (SMILES): CC(C)Cn1[se]c2ccccc2c1=O
- melting point: 114 to 116 °C

Structure (SMILES): [N-]=[N+]=Nc1ccc(NC(=O)c2ccccc2[Se]C#Cc2ccccc2)cc1 [Compound 208, N-(4-Azidophenyl)-2-((phenylethynyl)selanyl)-benzamide]
- MIC [1]: ≥ 50 µg/mL

Structure (SMILES): O=C(CCCCC1SC[C@@H]2NC(=O)N[C@H]12)NCCOCCOCCOCCNC(=O)CCC(=O)N1Cc2ccccc2-c2nnn(-c3ccc(-n4[se]c5ccccc5c4=O)cc3)c2-c2ccccc21 (stereo partly drawn) [Compound 210, N-(13,16-dioxo-16-(3-(4-(3-oxobenzo[d][1,2]selenazol-2(3H)-yl)phenyl)-3,9-dihydro-8H-dibenzo[b,f][1,2,3]triazolo[4,5-d]azocin-8-yl)-3,6,9-trioxa-12-azahexadecyl)-5-((3aS,6aR)-2-oxohexahydro-1H-thieno[3,4-d]imidazol-4-yl)pentanamide]
- MIC [1]: ≥ 50 µg/mL
- remaining activity at 5 µM [2]: 61%

Structure (SMILES): COc1ccc(Cn2[se]c3ccccc3c2=O)cc1 [Compound 506a, 2-(4-methoxybenzyl)benzo[d][1,2]selenazol-3(2H)-one]
- MIC [3]: 25 µg/mL (≈ 78.6 µM)
- MIC50 [3]: 18.3 µg/mL (≈ 57.6 µM)

Structure (SMILES): COc1ccc(-n2[se]c3ccccc3c2=O)cc1 [Compound 506b, 2-(4-methoxyphenyl)benzo[d][1,2]selenazol-3(2H)-one]
- MIC [3]: 25 µg/mL (≈ 82.2 µM)
- MIC50 [3]: 19.3 µg/mL (≈ 63.4 µM)

Structure (SMILES): COc1ccccc1Cn1[se]c2ccccc2c1=O [Compound 506c, 2-(2-methoxybenzyl)benzo[d][1,2]selenazol-3(2H)-one]
- melting point: 169 to 170 °C
- MIC [1]: 12.5 µg/mL (≈ 39.3 µM)
- MIC values against Mycobacterium tuberculosis compared with ebselen [3]: lower than ebselen
- MIC [3]: 12.5 µg/mL (≈ 39.3 µM)
- MIC50 [3]: 10.4 µg/mL (≈ 32.6 µM)
- remaining activity at 5 µM [2]: 36%

Structure (SMILES): O=c1c2ccccc2[se]n1Cc1ccccc1 [Compound 506d, 2-benzylbenzo[d][1,2]selenazol-3(2H)-one]
- MIC [3]: 25 µg/mL (≈ 86.7 µM)
- MIC50 [3]: 15 µg/mL (≈ 52.2 µM)

Structure (SMILES): C=CCn1[se]c2ccccc2c1=O [Compound 506e, 2-allylbenzo[d][1,2]selenazol-3(2H)-one]
- MIC [1]: 12.5 µg/mL (≈ 52.5 µM)
- MIC values against Mycobacterium tuberculosis compared with ebselen [3]: lower than ebselen
- MIC [3]: 12.5 µg/mL (≈ 52.5 µM)
- MIC50 [3]: 10.4 µg/mL (≈ 43.5 µM)
- remaining activity at 5 µM [2]: 15%
- IC50 ([2]; 15 min of incubation, read-out: Apparent IC50 (appIC50) against Mtb Ag85C): 8.8 µM
- Activity of Ag85C modified by compound over time [4]: decrease in the activity of Ag85C

Structure (SMILES): O=c1c2ccccc2[se]n1CC1CCCCC1 [Compound 506f, 2-(cyclohexylmethyl)benzo[d][1,2]selenazol-3(2H)-one]
- MIC [1]: ≥ 50 µg/mL
- MIC [3]: 50 µg/mL (≈ 170 µM)
- MIC50 [3]: 36.2 µg/mL (≈ 123 µM)
- remaining activity at 5 µM [2]: 30%
- Activity of Ag85C modified by compound over time [4]: decrease in the activity of Ag85C

Structure (SMILES): O=c1c2ccccc2[se]n1C1CCCC1 [Compound 506l, 2-Cyclopentylbenzo[d][1,2]selenazol-3(2H)-one]
- melting point: 119 to 120 °C
- remaining activity at 5 µM [2]: 40%

Structure (SMILES): O=c1c2ccccc2[se]n1C1CCCCC1 [Compound 506m, 2-Cyclohexylbenzo[d][1,2]selenazol-3(2H)-one]
- remaining activity at 5 µM [2]: 44%

Structure (SMILES): O=c1c2ccccc2[se]n1-c1ccccn1 [Compound 506o, 2-(Pyridin-2-yl)benzo[d][1,2]selenazol-3(2H)-one]
- Inhibition of cell rounding (cell appearance) [5]: more intermediate phenotype

Structure (SMILES): O=c1c2ccccc2[se]n1-c1ccccc1 [Ebselen, 2-phenyl-1,2-benzisoselenazol-3(2H)-one, reference compound]
- MIC [1]: 12.5 µg/mL (≈ 45.6 µM)
- MIC [3]: 12.5 µg/mL (≈ 45.6 µM)
- MIC50 [3]: 9.59 µg/mL (≈ 35 µM)
- remaining activity at 5 µM [2]: 17%
- Inhibition of cell rounding (cell appearance) [5]: maintained their string-like appearance
